Source: patent publication US20230020342A1, “METHOD FOR PRODUCING POLYOL-BASED ESTERS, IN PARTICULAR POLYGLYCEROL ESTERS, FROM HYDROXY CARBOXYLIC ACIDS” (IOI Oleo GmbH, priority 2019, published 2023)

Tested on: pancreatin (Panzytrat 40,000)
Test: Cleavage experiments with pancreatin in water, followed by acid number
Conditions: individual esters in pure form, 50° C.
Method: The pancreatin is used in the form of the commercially available product Panzytrat® 40,000 from the Allergan company. The whole mixture is stirred on a hot plate at 50° C.; the course of the reaction is determined and monitored by continuously recording the acid number over time.

| Substance | cleavage by pancreatin to free 3-hydroxybutyric acid (3-BHB-FS) |
| --- | --- |
| 3-hydroxybutyric acid tri-diglycerol ester | cleaved by pancreatin to the free 3-hydroxybutyric acid |
| 3-hydroxybutyric acid mono-diglycerol ester | cleaved by pancreatin to the free 3-hydroxybutyric acid |
| 3-hydroxybutyric acid di-diglycerol ester | cleaved by pancreatin to the free 3-hydroxybutyric acid |
